Data taken from patent US20230265151A1, “GIP/GLP1 CO-AGONIST COMPOUNDS” (priority 2020, published 2023).
Read-outs that look alike come from different tables or passages of the source.

Legend:
Format in all cases: cell-based
hGLP-1R = hGLP-1R (Homo sapiens, UniProt P43220); test: Functional cAMP formation (HTRF) in HEK-293 clonal cells expressing hGLP-1R, 0.1% bovine casein, without or with 1.0% human serum albumin; design: expressed in transfected cells; conditions: for EC50: cAMP, 0.1% bovine casein (no human serum albumin), geometric mean; for Emax: percent of maximal response to GLP-1(7-36)NH2
Chain of hGLP-1R (P43220 24-463): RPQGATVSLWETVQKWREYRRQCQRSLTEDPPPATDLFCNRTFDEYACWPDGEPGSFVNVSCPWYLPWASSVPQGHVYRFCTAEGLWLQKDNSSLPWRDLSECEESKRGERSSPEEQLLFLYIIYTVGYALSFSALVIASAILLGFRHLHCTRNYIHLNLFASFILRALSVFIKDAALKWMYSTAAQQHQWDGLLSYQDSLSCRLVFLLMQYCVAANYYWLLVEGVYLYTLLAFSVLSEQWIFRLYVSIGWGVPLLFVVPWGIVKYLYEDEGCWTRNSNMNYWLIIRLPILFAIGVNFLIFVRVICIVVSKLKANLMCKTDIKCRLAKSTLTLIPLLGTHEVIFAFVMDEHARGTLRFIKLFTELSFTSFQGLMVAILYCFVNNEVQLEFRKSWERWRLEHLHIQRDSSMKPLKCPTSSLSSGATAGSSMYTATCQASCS
Summary of the method: (§1)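 Readings of the HTRF 665/620 nm ratio, which falls as cAMP rises, were converted to nM cAMP using a standard curve after 30 min peptide exposure at 37° C.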

hGCGR = biological target: T1, hGCGR (Homo sapiens, UniProt P47871); test: Functional cAMP formation (HTRF) in HEK-293 clonal cells expressing hGCGR, 0.1% bovine casein, without or with 1.0% human serum albumin; conditions: 37° C.
T1 construct: expressed in transfected cells
T1 sequence (P47871 26-477): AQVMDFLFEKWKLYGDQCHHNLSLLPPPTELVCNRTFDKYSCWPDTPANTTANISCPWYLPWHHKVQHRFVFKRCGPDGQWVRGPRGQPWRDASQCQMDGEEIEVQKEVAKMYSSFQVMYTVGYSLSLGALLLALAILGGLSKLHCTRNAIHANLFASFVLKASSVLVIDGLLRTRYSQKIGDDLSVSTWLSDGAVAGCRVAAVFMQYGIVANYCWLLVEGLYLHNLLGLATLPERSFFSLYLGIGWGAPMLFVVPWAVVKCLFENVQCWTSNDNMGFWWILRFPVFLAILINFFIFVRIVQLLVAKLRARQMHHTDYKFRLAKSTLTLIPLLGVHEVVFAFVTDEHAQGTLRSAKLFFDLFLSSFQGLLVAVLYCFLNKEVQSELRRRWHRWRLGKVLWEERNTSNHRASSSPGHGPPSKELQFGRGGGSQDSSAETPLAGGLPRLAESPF
Summary of the method: as §1

hGIPR = biological target: T2, hGIPR (Homo sapiens, UniProt P48546); test: Functional cAMP formation (HTRF) in HEK-293 clonal cells expressing hGIPR, 0.1% bovine casein, without or with 1.0% human serum albumin; conditions: for Emax: percent of maximal response to GIP(1-42)NH2; for EC50: cAMP, 0.1% bovine casein (no human serum albumin), geometric mean
T2 construct: expressed in transfected cells
T2 sequence (P48546 22-466): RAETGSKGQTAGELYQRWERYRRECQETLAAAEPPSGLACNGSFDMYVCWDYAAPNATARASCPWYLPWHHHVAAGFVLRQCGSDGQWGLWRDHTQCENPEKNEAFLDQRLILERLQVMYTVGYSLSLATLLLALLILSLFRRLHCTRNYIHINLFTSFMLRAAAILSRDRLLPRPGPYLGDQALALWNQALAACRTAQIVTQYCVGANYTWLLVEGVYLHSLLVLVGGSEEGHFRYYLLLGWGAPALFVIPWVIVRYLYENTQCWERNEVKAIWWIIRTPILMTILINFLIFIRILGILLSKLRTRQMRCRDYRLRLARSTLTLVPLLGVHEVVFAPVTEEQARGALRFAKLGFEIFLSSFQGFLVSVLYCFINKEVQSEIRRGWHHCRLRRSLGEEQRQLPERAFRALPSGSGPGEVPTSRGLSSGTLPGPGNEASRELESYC
Summary of the method: as §1

[1] = hGLP-1R EC50, nM (SEM, n), 37° C.
[2] = hGCGR EC50, nM (SEM, n), 0.1% bovine casein and 1.0% human serum albumin, geometric mean
[3] = hGCGR EC50, nM (SEM, n), cAMP, 0.1% bovine casein (no human serum albumin), geometric mean
[4] = HEK293, read-out: hGIPR Emax, % ± SEM, 0.1% bovine casein and 1.0% human serum albumin, 37° C.
[5] = hGIPR EC50, nM (SEM, n), 37° C.
[6] = HEK293, cAMP, 37° C., 0.1% bovine casein, arithmetic mean, read-out: hGLP-1R Emax, % ± SEM
[7] = 37° C., read-out: hGLP-1R EC50, nM (SEM, n)
[8] = cAMP, 0.1% bovine casein (no human serum albumin), geometric mean, read-out: hGCGR EC50, nM (SEM, n)
[9] = cAMP, 0.1% bovine casein and 1.0% human serum albumin, geometric mean (SEM, n), read-out: hGCGR EC50, nM (SEM, n)
[10] = HEK293, cAMP, 37° C., 0.1% bovine casein and 1.0% human serum albumin, read-out: hGIPR Emax, % ± SEM

Row | SMILES | EC50 (hGLP-1R; [1]) | EC50 (hGCGR; [2]) | EC50 (hGCGR; [3]) | Emax (hGIPR; [4]) | Emax (hGIPR; HEK293, read-out: hGIPR Emax, % ± SEM, cAMP, 37° C., 0.1% bovine casein, arithmetic mean) | EC50 (hGIPR; [5]) | Emax (hGLP-1R; [6]) | EC50 (hGLP-1R; [7]) | EC50 (hGCGR; [8]) | EC50 (hGCGR; [9]) | Emax (hGIPR; [10]) | EC50 (hGIPR; 37° C., read-out: hGIPR EC50, nM (SEM, n)) | Emax (hGLP-1R; HEK293, read-out: hGLP-1R Emax, % ± SEM, cAMP, 37° C., 0.1% bovine casein and 1.0% human serum albumin) | Emax (hGLP-1R; HEK293, read-out: hGLP-1R Emax, % ± SEM, cAMP, 37° C., 0.1% bovine casein, arithmetic mean) | EC50 (hGCGR; hGCGR EC50, nM (SEM, n), cAMP, 0.1% bovine casein and 1.0% human serum albumin, geometric mean (SEM, n)) | Emax (hGIPR; HEK293, read-out: hGIPR Emax, % ± SEM, cAMP, 37° C., 0.1% bovine casein and 1.0% human serum albumin)
1 | CC[C@H](C)[C@H](NC(=O)[C@H](CC(C)C)NC(=O)[C@](C)(Cc1ccc(O)cc1)NC(=O)[C@@H](CCC(=O)O)NC(=O)[C@@H](NC(=O)[C@H](Cc1ccccc1)NC(=O)[C@H](CCCCNC(=O)COCCOCCNC(=O)COCCOCCNC(=O)CC[C@H](NC(=O)CCCCCCCCCOc1ccc(C(=O)O)cc1)C(=O)O)NC(=O)C(C)(C)NC(=O)[C@H](CCC(N)=O)NC(=O)[C@H](C)NC(=O)[C@H](CCCCNC(=O)COCCOCCNC(=O)COCCOCCNC(=O)CC[C@H](NC(=O)CCCCCCCCCOc1ccc(C(=O)O)cc1)C(=O)O)NC(=O)[C@H](CCCN)NC(=O)[C@H](CC(=O)O)NC(=O)[C@H](CC(C)C)NC(=O)[C@](C)(CC(C)C)NC(=O)[C@@H](NC(=O)[C@H](CO)NC(=O)[C@H](CCc1ccc(O)cc1)NC(=O)[C@H](CC(=O)O)NC(=O)[C@H](CO)NC(=O)[C@@H](NC(=O)[C@](C)(Cc1ccccc1F)NC(=O)[C@@H](NC(=O)CNC(=O)[C@H](CCC(=O)O)NC(=O)C(C)(C)NC(=O)[C@@H](N)Cc1ccc(O)cc1)[C@@H](C)O)[C@@H](C)O)[C@@H](C)CC)[C@@H](C)CC)C(=O)N[C@@H](CCC(=O)O)C(=O)NCC(=O)NCC(=O)N1CCC[C@H]1C(=O)N[C@@H](CO)C(=O)N[C@@H](CO)C(=O)NCC(=O)N[C@@H](C)C(=O)N1CCC[C@H]1C(=O)N1CCC[C@H]1C(=O)N1CCC[C@H]1C(=O)N[C@@H](CO)C(N)=O [Example 320] | 0.246 nM | > 9950 nM | > 9950 nM | 84.1% | 94.2% | – | – | – | – | – | – | – | – | – | – | –
2 | CCCC[C@H](NC(=O)[C@H](CC(=O)O)NC(=O)[C@H](CO)NC(=O)[C@@H](NC(=O)[C@](C)(Cc1ccccc1F)NC(=O)[C@@H](NC(=O)CNC(=O)[C@H](CCC(=O)O)NC(=O)C(C)(C)NC(=O)[C@@H](N)Cc1ccc(O)cc1)[C@@H](C)O)[C@@H](C)O)C(=O)N[C@@H](CO)C(=O)N[C@H](C(=O)N[C@@](C)(CC(C)C)C(=O)N[C@@H](CC(C)C)C(=O)N[C@@H](CC(=O)O)C(=O)N[C@@H](CCCN)C(=O)N[C@@H](CCCCNC(=O)COCCOCCNC(=O)COCCOCCNC(=O)CC[C@H](NC(=O)CCCCCCCCCOc1ccc(C(=O)O)cc1)C(=O)O)C(=O)N[C@@H](C)C(=O)N[C@@H](CCC(N)=O)C(=O)NC(C)(C)C(=O)N[C@@H](CCCCNC(=O)COCCOCCNC(=O)COCCOCCNC(=O)CC[C@H](NC(=O)CCCCCCCCCOc1ccc(C(=O)O)cc1)C(=O)O)C(=O)N[C@@H](Cc1ccccc1)C(=O)N[C@H](C(=O)N[C@H](CCC(=O)O)C(=O)N[C@@](C)(Cc1ccc(O)cc1)C(=O)N[C@@H](CC(C)C)C(=O)N[C@H](C(=O)N[C@@H](CCC(=O)O)C(=O)NCC(=O)NCC(=O)N1CCC[C@H]1C(=O)N[C@@H](CO)C(=O)N[C@@H](CO)C(=O)NCC(=O)N[C@@H](C)C(=O)N1CCC[C@H]1C(=O)N1CCC[C@H]1C(=O)N1CCC[C@H]1C(=O)N[C@@H](CO)C(N)=O)[C@@H](C)CC)[C@@H](C)CC)[C@@H](C)CC [Example 321] | 0.295 nM | > 9950 nM | > 9950 nM | 94.5% | – | 0.0107 nM | – | – | – | – | – | – | – | – | – | –
3 | CCCCCCCCCCCC(=O)N[C@@H](CCC(=O)NCCOCCOCC(=O)NCCOCCOCC(=O)NCCCC[C@H](NC(=O)[C@H](CCCN)NC(=O)[C@H](CC(=O)O)NC(=O)[C@H](CC(C)C)NC(=O)[C@](C)(CC(C)C)NC(=O)[C@@H](NC(=O)[C@H](CO)NC(=O)[C@H](CCc1ccc(O)cc1)NC(=O)[C@H](CC(=O)O)NC(=O)[C@H](CO)NC(=O)[C@@H](NC(=O)[C@](C)(Cc1ccccc1F)NC(=O)[C@@H](NC(=O)CNC(=O)[C@H](CCC(=O)O)NC(=O)C(C)(C)NC(=O)[C@@H](N)Cc1ccc(O)cc1)[C@@H](C)O)[C@@H](C)O)[C@@H](C)CC)C(=O)N[C@@H](C)C(=O)N[C@@H](CCC(N)=O)C(=O)NC(C)(C)C(=O)N[C@@H](CCCCNC(=O)COCCOCCNC(=O)COCCOCCNC(=O)CC[C@H](NC(=O)CCCCCCCCCCC)C(=O)O)C(=O)N[C@@H](Cc1ccccc1)C(=O)N[C@H](C(=O)N[C@H](CCC(=O)O)C(=O)N[C@@](C)(Cc1ccc(O)cc1)C(=O)N[C@@H](CC(C)C)C(=O)N[C@H](C(=O)N[C@@H](CCC(=O)O)C(=O)NCC(=O)NCC(=O)N1CCC[C@H]1C(=O)N[C@@H](CO)C(=O)N[C@@H](CO)C(=O)NCC(=O)N[C@@H](C)C(=O)N1CCC[C@H]1C(=O)N1CCC[C@H]1C(=O)N1CCC[C@H]1C(=O)N[C@@H](CO)C(N)=O)[C@@H](C)CC)[C@@H](C)CC)C(=O)O [Example 323] | – | – | – | – | – | – | 92.6% | 0.203 nM | > 9950 nM | > 9950 nM | 92.9% | – | – | – | – | –
4 | CC[C@H](C)[C@H](NC(=O)[C@H](CC(C)C)NC(=O)[C@](C)(Cc1ccc(O)cc1)NC(=O)[C@@H](CCC(=O)O)NC(=O)[C@@H](NC(=O)[C@H](Cc1ccccc1)NC(=O)[C@H](CCC(=O)O)NC(=O)C(C)(C)NC(=O)[C@H](CCC(N)=O)NC(=O)[C@H](C)NC(=O)[C@H](CCCCNC(=O)COCCOCCNC(=O)COCCOCCNC(=O)CC[C@H](NC(=O)CCCCCCCCCCCCC(=O)O)C(=O)O)NC(=O)[C@H](CCCN)NC(=O)[C@H](CC(=O)O)NC(=O)[C@H](CC(C)C)NC(=O)[C@](C)(CC(C)C)NC(=O)[C@@H](NC(=O)C(C)(C)NC(=O)[C@@H](NC(=O)[C@H](CC(=O)O)NC(=O)[C@H](CO)NC(=O)[C@@H](NC(=O)[C@](C)(Cc1ccccc1F)NC(=O)[C@@H](NC(=O)CNC(=O)[C@H](CCC(=O)O)NC(=O)C(C)(C)NC(=O)[C@@H](N)Cc1ccc(O)cc1)[C@@H](C)O)[C@@H](C)O)C(C)C)[C@@H](C)CC)[C@@H](C)CC)C(=O)N[C@@H](CCCCNC(=O)COCCOCCNC(=O)COCCOCCNC(=O)CC[C@H](NC(=O)CCCCCCCCCCCCC(=O)O)C(=O)O)C(=O)NCC(=O)NCC(=O)N1CCC[C@H]1C(=O)N[C@@H](CO)C(=O)N[C@@H](CO)C(=O)NCC(=O)N[C@@H](C)C(=O)N1CCC[C@H]1C(=O)N1CCC[C@H]1C(=O)N1CCC[C@H]1C(=O)N[C@@H](CO)C(N)=O [Example 325] | – | – | – | – | – | – | 97.8% | 0.225 nM | > 9950 nM | > 9950 nM | 94.7% | 0.0485 nM | – | – | – | –
5 | CC[C@H](C)[C@H](NC(=O)[C@H](CC(C)C)NC(=O)[C@](C)(Cc1ccc(O)cc1)NC(=O)[C@@H](CCC(=O)O)NC(=O)[C@@H](NC(=O)[C@H](Cc1ccccc1)NC(=O)[C@H](CCC(=O)O)NC(=O)C(C)(C)NC(=O)[C@H](CCC(N)=O)NC(=O)[C@H](C)NC(=O)[C@H](CCCCNC(=O)COCCOCCNC(=O)COCCOCCNC(=O)CC[C@H](NC(=O)CCCCCCCCCOc1ccc(C(=O)O)cc1)C(=O)O)NC(=O)[C@H](CCCN)NC(=O)[C@H](CC(=O)O)NC(=O)[C@H](CC(C)C)NC(=O)[C@](C)(CC(C)C)NC(=O)[C@@H](NC(=O)C(C)(C)NC(=O)[C@@H](NC(=O)[C@H](CC(=O)O)NC(=O)[C@H](CO)NC(=O)[C@@H](NC(=O)[C@](C)(Cc1ccccc1F)NC(=O)[C@@H](NC(=O)CNC(=O)[C@H](CCC(=O)O)NC(=O)C(C)(C)NC(=O)[C@@H](N)Cc1ccc(O)cc1)[C@@H](C)O)[C@@H](C)O)C(C)C)[C@@H](C)CC)[C@@H](C)CC)C(=O)N[C@@H](CCCCNC(=O)COCCOCCNC(=O)COCCOCCNC(=O)CC[C@H](NC(=O)CCCCCCCCCOc1ccc(C(=O)O)cc1)C(=O)O)C(=O)NCC(=O)NCC(=O)N1CCC[C@H]1C(=O)N[C@@H](CO)C(=O)N[C@@H](CO)C(=O)NCC(=O)N[C@@H](C)C(=O)N1CCC[C@H]1C(=O)N1CCC[C@H]1C(=O)N1CCC[C@H]1C(=O)N[C@@H](CO)C(N)=O [Example 326] | 0.186 nM | – | > 9950 nM | – | – | 0.0338 nM | – | – | – | – | – | – | 96.1% | 94.4% | > 9950 nM | 88.7%
